For test [1], the target named is T1, PI3Kδ (p110δ/p85α) (Homo sapiens, UniProt O00329).
T1 construct: purchased Millipore (Bedford, Mass.)
The test can be described thus: PI3Kδ scintillation proximity assay (assay A). The conditions noted are these: 20 μM PIP2, 20 μM ATP, 4 nM PI3Kδ, 210 minutes, room temperature. Type of test: biochemical. The procedure:
PI3Kδ Scintillation Proximity Assay
[γ-33P] ATP (10 mCi/mL) was purchased from Perkin-Elmer (Waltham, Mass.). […] PI3Kδ (p110δ/p85α) was purchased from Millipore (Bedford, Mass.). ATP, MgCl2, DTT, EDTA, MOPS and CHAPS were purchased from Sigma-Aldrich (St. Louis, Mo.). Wheat Germ Agglutinin (WGA) YSi SPA Scintillation Beads was purchased from GE healthcare life sciences (Piscataway, N.J.).
The kinase reaction was conducted in polystyrene 384-well matrix white plate from Thermo Fisher Scientific in a final volume of 25 μL. Inhibitors were first diluted serially in DMSO and added to the plate wells before the addition of other reaction components. The final concentration of DMSO in the assay was 0.5%. The PI3K assays were carried out at room temperature in 20 mM MOPS, pH 6.7, 10 mM MgCl2, 5 mM DTT and CHAPS 0.03%. Reactions were initiated by the addition of ATP, the final reaction mixture consisted of 20 μM PIP2, 20 μM ATP, 0.2 μCi [γ-^33P] ATP, 4 nM PI3Kδ. Reactions were incubated for 210 minutes and terminated by the addition of 40 μL SPA beads suspended in quench buffer: 150 mM potassium phosphate pH 8.0, 20% glycerol. 25 mM EDTA, 400 μM ATP. The final concentration of SPA beads is 1.0 mg/mL. After the plate sealing, plates were shaken overnight at room temperature and centrifuged at 1800 rpm for 10 minutes, the radioactivity of the product was determined by scintillation counting on Topcount (Perkin-Elmer). IC50 determination was performed by fitting the curve of percent control activity versus the log of the inhibitor concentration using the GraphPad Prism 3.0 software.
Background: SPA uses beads or plates that emit light when radiolabelled molecules are held near them.

Test [2] has as its system Pfeiffer cell line (diffuse large B cell lymphoma). The test can be described thus: Pfeiffer cell proliferation assay. The format is cell-based. The conditions noted are these: Homo sapiens, [3H]-thymidine incorporation after 3-4 days plus 12 hours. How it is done: Pfeiffer Cell Proliferation Assay
Pfeiffer cell line (diffuse large B cell lymphoma) was purchased from ATCC (Manassas, Va.) and maintained in the culture medium recommended (RPMI and 10% FBS). To measure the anti-proliferation activity of the compounds, the Pfeiffer cells were plated with the culture medium (2×10^3 cells/well/per 200 μl) into 96-well ultra-low binding plates (Corning, Corning, N.Y.), in the presence or absence of a concentration range of test compounds. After 3-4 days, [^3H]-thymidine (1 μCi/well) (PerkinElmer, Boston, Mass.) in PBS was then added to the cell culture for an additional 12 hours before the incorporated radioactivity was separated by filtration with water through GF/B filters (Packard Bioscience, Meridenj, Conn.) and measured by liquid scintillation counting with a TopCount (Packard Bioscience).
In general terms: Dividing cells build labelled thymidine or BrdU into new DNA.

Here are results for 26 molecules from patent US9193721B2, “Fused derivatives as PI3Kδ inhibitors” (Incyte Holdings Corporation, priority 2010, dated 2015).

Structures are written as SMILES. Structures can show the parent of a compound that is named as a salt. Some results are limits rather than exact numbers.

T1 sequence (O00329 whole entry): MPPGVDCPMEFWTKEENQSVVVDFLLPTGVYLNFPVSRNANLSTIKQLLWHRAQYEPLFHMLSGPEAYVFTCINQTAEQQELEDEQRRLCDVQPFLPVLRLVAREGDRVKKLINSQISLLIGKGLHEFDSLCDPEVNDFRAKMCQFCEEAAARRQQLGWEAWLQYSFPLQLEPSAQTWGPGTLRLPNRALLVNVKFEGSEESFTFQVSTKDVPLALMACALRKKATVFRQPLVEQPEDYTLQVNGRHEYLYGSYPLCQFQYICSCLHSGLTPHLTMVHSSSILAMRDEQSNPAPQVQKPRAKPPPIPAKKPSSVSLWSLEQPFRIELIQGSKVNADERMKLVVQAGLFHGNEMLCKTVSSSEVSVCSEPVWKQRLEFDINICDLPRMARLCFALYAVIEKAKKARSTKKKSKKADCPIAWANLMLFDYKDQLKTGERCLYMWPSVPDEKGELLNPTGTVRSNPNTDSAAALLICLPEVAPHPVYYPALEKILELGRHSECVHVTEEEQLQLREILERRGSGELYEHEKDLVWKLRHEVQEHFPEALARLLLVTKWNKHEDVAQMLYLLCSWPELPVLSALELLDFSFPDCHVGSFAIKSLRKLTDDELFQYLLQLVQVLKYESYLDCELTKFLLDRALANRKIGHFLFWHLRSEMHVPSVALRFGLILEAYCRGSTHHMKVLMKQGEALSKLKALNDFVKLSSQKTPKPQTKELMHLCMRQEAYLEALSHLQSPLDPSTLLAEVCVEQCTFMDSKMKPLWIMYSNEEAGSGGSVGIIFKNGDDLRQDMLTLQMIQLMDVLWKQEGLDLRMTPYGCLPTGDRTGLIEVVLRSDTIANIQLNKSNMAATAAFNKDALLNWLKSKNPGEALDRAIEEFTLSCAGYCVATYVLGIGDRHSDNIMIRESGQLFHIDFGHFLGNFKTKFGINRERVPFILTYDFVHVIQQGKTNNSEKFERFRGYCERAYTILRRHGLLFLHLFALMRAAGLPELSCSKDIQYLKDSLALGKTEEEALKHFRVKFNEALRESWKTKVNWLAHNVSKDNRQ
T1 sequence (P27986 whole entry partner): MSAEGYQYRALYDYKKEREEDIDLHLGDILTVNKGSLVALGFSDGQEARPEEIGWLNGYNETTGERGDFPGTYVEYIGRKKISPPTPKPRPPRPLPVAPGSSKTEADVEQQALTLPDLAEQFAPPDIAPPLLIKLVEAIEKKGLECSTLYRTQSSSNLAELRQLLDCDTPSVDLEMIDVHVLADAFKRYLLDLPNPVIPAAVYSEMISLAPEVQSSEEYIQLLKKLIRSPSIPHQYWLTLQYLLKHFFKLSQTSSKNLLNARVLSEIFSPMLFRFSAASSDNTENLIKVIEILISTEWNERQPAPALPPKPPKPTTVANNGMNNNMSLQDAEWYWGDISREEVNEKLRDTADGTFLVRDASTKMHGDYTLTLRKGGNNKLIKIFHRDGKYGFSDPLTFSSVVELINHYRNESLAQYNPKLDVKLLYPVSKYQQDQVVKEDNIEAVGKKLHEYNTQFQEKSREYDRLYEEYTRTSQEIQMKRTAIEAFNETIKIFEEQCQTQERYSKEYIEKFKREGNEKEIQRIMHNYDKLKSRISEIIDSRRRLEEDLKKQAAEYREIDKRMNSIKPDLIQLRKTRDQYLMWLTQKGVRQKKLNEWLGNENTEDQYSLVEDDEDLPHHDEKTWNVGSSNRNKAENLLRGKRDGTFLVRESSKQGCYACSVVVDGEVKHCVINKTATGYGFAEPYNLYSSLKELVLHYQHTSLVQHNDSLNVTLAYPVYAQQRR

What is called IC50 is the midpoint of a concentration-inhibition curve. With `CC(Nc1ncnc2[nH]cnc12)c1cc(Cl)c2cncn2c1-c1cccc(F)c1` (racemic) [Example 1, N-{1-[8-Chloro-5-(3-fluorophenyl)imidazo[1,5-a]pyridin-6-yl]ethyl}-9H-purin-6-amine], the figures for the IC50 in test [1] and in test [2] were under 50 nM and at most 100 nM, respectively.
`Cc1ncc2c(Cl)cc(C(C)Nc3ncnc4[nH]cnc34)c(-c3cccc(F)c3)n12` (racemic) [Example 2, N-{1-[8-Chloro-5-(3-fluorophenyl)-3-methylimidazo[1,5-a]pyridin-6-yl]ethyl}-9H-purin-6-amine] displayed an IC50 in test [1] of under 50 nM.
Take `CC(Nc1ncnc2[nH]cnc12)c1cc(Cl)c2cncn2c1-c1cccc(F)c1` (single isomer, unassigned) [1, isomer 1]: the IC50 in test [1] was under 50 nM; in test [2], at most 100 nM.
In the case of `CC(Nc1ncnc2[nH]cnc12)c1cc(Cl)c2cncn2c1-c1cccc(F)c1` (single isomer, unassigned) [1, isomer 2], the IC50 in test [1] was 50 to 200 nM.
Consider `CC(Nc1ncnc2[nH]cnc12)c1cc(Cl)c2nccn2c1-c1cccc(F)c1` (centres unmarked) [Example 3, N-{1-[8-Chloro-5-(3-fluorophenyl)imidazo[1,2-a]pyridin-6-yl]ethyl}-9H-purin-6-amine], for which the IC50 in test [1] was in the range of 200 to 750 nM; in test [2] it was 1000 to 3000 nM.
With `CC(=O)N1CCN(c2c(C(C)Nc3ncnc4[nH]cnc34)cc(Cl)c3cncn23)CC1` (centres unmarked) [Example 4, N-{1-[5-(4-Acetylpiperazin-1-yl)-8-chloroimidazo[1,5-a]pyridin-6-yl]ethyl}-9H-purin-6-amine], the IC50 is under 50 nM in test [1] and 500 to 1000 nM in test [2].
Turning to `CC(Nc1ncnc2[nH]cnc12)c1cc(Cl)c2cncn2c1N1CCN(S(C)(=O)=O)CC1` (centres unmarked) [Example 5, N-(1-{8-chloro-5-[4-(methylsulfonyl)piperazin-1-yl]imidazo[1,5-a]pyridin-6-yl}ethyl)-9H-purin-6-amine], the IC50 was 50 to 200 nM in test [1] and over 3000 nM in test [2].
For `CC(Nc1ncnc2[nH]cnc12)c1cc(Cl)c2cncn2c1N1CCN(C(=O)OC(C)(C)C)CC1` (centres unmarked) [Example 6, tert-Butyl 4-{8-chloro-6-[1-(9H-purin-6-ylamino)ethyl]imidazo[1,5-a]pyridin-5-yl}piperazine-1-carboxylate], in that order: 50 to 200 nM and over 3000 nM.
Consider `CC(Nc1ncnc2[nH]cnc12)c1cc(Cl)c2cncn2c1N1CCN(C(=O)C2CC2)CC1` (centres unmarked) [Example 7, N-(1-{8-Chloro-5-[4-(cyclopropylcarbonyl)piperazin-1-yl]imidazo[1,5-a]pyridin-6-yl}ethyl)-9H-purin-6-amine], for which the IC50 was under 50 nM in test [1] and 100 to 500 nM in test [2].
For `COCC(=O)N1CCN(c2c(C(C)Nc3ncnc4[nH]cnc34)cc(Cl)c3cncn23)CC1` (centres unmarked) [Example 8, N-(1-{8-chloro-5-[4-(methoxyacetyl)piperazin-1-yl]imidazo[1,5-a]pyridin-6-yl}ethyl)-9H-purin-6-amine], in that order: under 50 nM and over 3000 nM.
Take `CC(Nc1ncnc2[nH]cnc12)c1cc(Cl)c2cncn2c1N1CCNCC1` (centres unmarked) [Example 9, N-[1-(8-Chloro-5-piperazin-1-ylimidazo[1,5-a]pyridin-6-yl)ethyl]-9H-purin-6-amine dihydrochloride]: the IC50 in test [1] is under 50 nM; in test [2], at most 100 nM.
Take `CC(Nc1ncnc2[nH]cnc12)c1cc(Cl)c2cncn2c1N1CCN(C(=O)CC#N)CC1` (centres unmarked) [Example 10, 3-(4-{8-Chloro-6-[1-(9H-purin-6-ylamino)ethyl]imidazo[1,5-a]pyridin-5-yl}piperazin-1-yl)-3-oxopropanenitrile]: the IC50 in test [1] is under 50 nM; in test [2], over 3000 nM.
On to `CC(Nc1ncnc2[nH]cnc12)c1cc(Cl)c2cncn2c1N1CCN(C(=O)c2cnn(C)c2)CC1` (centres unmarked) [Example 11, N-[1-(8-Chloro-5-{4-[(1-methyl-1H-pyrazol-4-yl)carbonyl]piperazin-1-yl}imidazo[1,5-a]pyridin-6-yl)ethyl]-9H-purin-6-amine], for which the IC50 in test [1] is under 50 nM; in test [2] it was over 3000 nM.
The corresponding values for `COCCN1CCN(c2c(C(C)Nc3ncnc4[nH]cnc34)cc(Cl)c3cncn23)CC1` (centres unmarked) [Example 12, N-(1-{8-Chloro-5-[4-(2-methoxyethyl)piperazin-1-yl]imidazo[1,5-a]pyridin-6-yl}ethyl)-9H-purin-6-amine] are 200 to 750 nM and 100 to 500 nM.
On to `CC(Nc1ncnc2[nH]cnc12)c1cc(Cl)c2cncn2c1N1CCN(CC#N)CC1` (centres unmarked) [Example 13, (4-{8-Chloro-6-[1-(9H-purin-6-ylamino)ethyl]imidazo[1,5-a]pyridin-5-yl}piperazin-1-yl)acetonitrile], for which the figures for the IC50 in test [1] and in test [2] were 50 to 200 nM and 500 to 1000 nM, respectively.
In the case of `CC(Nc1ncnc2[nH]cnc12)c1cc(Cl)c2cncn2c1N1CCN(CCCC(F)(F)F)CC1` (centres unmarked) [Example 14, N-(1-{8-Chloro-5-[4-(4,4,4-trifluorobutyl)piperazin-1-yl]imidazo[1,5-a]pyridin-6-yl}ethyl)-9H-purin-6-amine], the IC50 in test [1] was 50 to 200 nM; in test [2] it was at most 100 nM.
Consider `CC(Nc1ncnc2[nH]cnc12)c1cc(Cl)c2cncn2c1N1CCN(C2CCC2)CC1` (centres unmarked) [Example 15, N-{1-[8-Chloro-5-(4-cyclobutylpiperazin-1-yl)imidazo[1,5-a]pyridin-6-yl]ethyl}-9H-purin-6-amine], for which the values for the IC50 in test [1] and in test [2] were 50 to 200 nM and at most 100 nM, respectively.
Consider `CC(Nc1ncnc2[nH]cnc12)c1cc(Cl)c2cncn2c1N1CCN(CC2CCCO2)CC1` (centres unmarked) [Example 16, N-(1-{8-Chloro-5-[4-(tetrahydrofuran-2-ylmethyl)piperazin-1-yl]imidazo[1,5-a]pyridin-6-yl}ethyl)-9H-purin-6-amine], for which the values for the IC50 in test [1] and in test [2] were 200 to 750 nM and 100 to 500 nM, respectively.
For `CC(Nc1ncnc2[nH]cnc12)c1cc(Cl)c2cncn2c1N1CCN(CC2CC2)CC1` (centres unmarked) [Example 17, N-(1-{8-Chloro-5-[4-(cyclopropylmethyl)piperazin-1-yl]imidazo[1,5-a]pyridin-6-yl}ethyl)-9H-purin-6-amine], in that order: 200 to 750 nM and 100 to 500 nM.
On to `CCC(Nc1ncnc2[nH]cnc12)c1cc(Cl)c2cncn2c1-c1cccc(F)c1` (centres unmarked) [Example 18, N-{1-[8-Chloro-5-(3-fluorophenyl)imidazo[1,5-a]pyridin-6-yl]propyl}-9H-purin-6-amine], for which the values for the IC50 in test [1] and in test [2] were under 50 nM and 100 to 500 nM, respectively.
For `Cc1ncc2c(Cl)cc(C(C)Nc3ncnc4[nH]cnc34)c(-c3cc(F)cc(F)c3)n12` (centres unmarked) [Example 19, N-{1-[8-Chloro-5-(3,5-difluorophenyl)-3-methylimidazo[1,5-a]pyridin-6-yl]ethyl}-9H-purin-6-amine], the IC50 is under 50 nM in test [1] and at most 100 nM in test [2].
Consider `CCC(Nc1ncnc2[nH]cnc12)c1cc(Cl)c2cnc(C)n2c1-c1cc(F)cc(F)c1` (centres unmarked) [Example 20, N-{1-[8-Chloro-5-(3,5-difluorophenyl)-3-methylimidazo[1,5-a]pyridin-6-yl]propyl}-9H-purin-6-amine], for which the IC50 in test [1] was under 50 nM; in test [2], 100 to 500 nM.
On to `CO[C@@H]1CCN(c2c(C(C)Nc3ncnc4[nH]cnc34)cc(Cl)c3cncn23)C1` (stereo partly drawn) [Example 21, N-(1-{8-Chloro-5-[(3R)-3-methoxypyrrolidin-1-yl]imidazo[1,5-a]pyridin-6-yl}ethyl)-9H-purin-6-amine], for which the IC50 was under 50 nM in test [1] and at most 100 nM in test [2].
The corresponding values for `CO[C@H]1CCN(c2c(C(C)Nc3ncnc4[nH]cnc34)cc(Cl)c3cncn23)C1` (stereo partly drawn) [Example 22, N-(1-{8-Chloro-5-[(3S)-3-methoxypyrrolidin-1-yl]imidazo[1,5-a]pyridin-6-yl}ethyl)-9H-purin-6-amine] are under 50 nM and at most 100 nM.
The corresponding values for `CC(Nc1ncnc2[nH]cnc12)c1cc(Cl)c2cncn2c1N1CC[C@@H](O)C1` (stereo partly drawn) [Example 23, (3R)-1-{8-Chloro-6-[1-(9H-purin-6-ylamino)ethyl]imidazo[1,5-a]pyridin-5-yl}pyrrolidin-3-ol] are 50 to 200 nM and at most 100 nM.
`CC(Nc1ncnc2[nH]cnc12)c1cc(Cl)c2cncn2c1N1CC[C@H](O)C1` (stereo partly drawn) [Example 24, (3S)-1-{8-Chloro-6-[1-(9H-purin-6-ylamino)ethyl]imidazo[1,5-a]pyridin-5-yl}pyrrolidin-3-ol]: the IC50 is under 50 nM in test [1] and at most 100 nM in test [2].
